Laboratory results reported in US5359135A, “Triasulfurone compounds” (priority 1990, dated 1994).

Experiments:
Assay type in all cases: binding, mouse (Balb/c)
Conditions in all cases: for Cross-reactivity: (triasulfurone conc. for 50% inhibition/analog conc. for 50% inhibition) × 100
MAb 4134-40-1 = experiment: competitive ELISA, triasulfurone and analogs with MAb 4134-40-1 (Table 1)
Excerpt: (§1) As defined within the context of this invention, the percentage of cross-reactivity is represented by the following equation: [triasulfurone concentration for 50% inhibition (I50)/concentration of the triasulfurone analogs for 50% inhibition (I50)]×100.
(§2) The I50 value can be determined, for example, by means of a competitive ELISA assay (see Example 8). In that case the I50 value corresponds, for example, to the antigen concentration that leads to a 50% inhibition of the binding of the antibody to the carrier-bound antigen.
(§3) The detection of triasulfurone is effected by means of a two-step competitive ELISA test.
(§4) BSA-conjugated hapten, prepared in accordance with Example 1.3.1 or 1.3.2, in a 50mM sodium carbonate buffer (pH 9.6) (200 ng of BSA-conjugated hapten/100 μl of sodium carbonate buffer) is first of all adsorbed on microtitre plates (for example Dynatech, type M 129A) and incubated overnight at a temperature of 4° C. The plates are then washed five times with PBS buffer enriched with 0.1% (v/v) polysorbate 20 (Tween 20) (PBS Tween).
(§5) The remaining free binding sites of the solid carder material are then blocked by the addition of PBS-BSA in the form of a 1% (w/v) solution. After incubation for two hours at 22° C. the plates are washed again with PBS Tween (0.1%).
(§6) 50 μl of the supernatant of the previously cloned hybridoma cells (in a dilution of 1:2000 or 1:4000) or 50 μl of the previously purified monoclonal antibodies (40-120 ng/ml) are incubated a) with 950 μl of a standard solution containing an increasing amount of triasulfurone or of triasulfurone analogs, b) with triasulfurone-containing water samples or c) with triasulfurone-containing soil extracts. [All dilutions are carried out in PBS Tween (0.1%)].
(§7) After an incubation period of 1 hour at room temperature (22° C.), 200 μl of the antigen/antibody mixture are added to each well in the microtitre plate and the whole batch is incubated for a further one hour. The wells are then washed five times with PBS Tween (0.1%) and charged with 100 μl/well of goat anti-mouse IgG antibody that is conjugated to alkaline phosphatase (dilution 1:1500), and incubated for a period of 1.5 hours.
(§8) After washing again, 150 μl/well of the substrate p-nitrophenyl phosphate dissolved in 1 mg/ml of diethanolamine buffer ([…], pH 9.8, enriched with 0.5 mM MgCl2 ×6H2 O) are added to the wells.
(§9) The intensity of the colour reaction that has occurred is determined at a wavelength of 405 nm. […] All the samples are determined in triplicate.
(§10) In order to determine the amount of triasulfurone present in a sample, first of all a calibration curve is produced (FIG. 1), B/Bo×100 being plotted against the concentration of inhibitor. (Bo represents the absorption capacity measured without the addition of a triasulfurone inhibitor to the antibody, and B is the absorption capacity when triasulfurone inhibitors at various concentrations are added). The I50 value indicates the concentration of the antigen at which the binding of antibody to the solid phase is inhibited by 50%. The I50 value is determined using an ENZFITTER (Leatherbarrow, Elsevier-Biosoft) curve-calculation program based on a four-parameter logistical curve (Raab GM, 1983) and specially adapted to the prevailing conditions. The quantitative determination of triasulfurone in soil or water samples within the context of ELISA is also carried out using the ENZFITTER program, the adaptation of the curve being based on standards that run on any microtitre plate.

MAb 4149-1-1 = experiment: competitive ELISA, triasulfurone and analogs with MAb 4149-1-1 (Table 1)
Excerpt: as §1, §2, §3, §4, §5, §6, §7, §8, §9, §10

MAb 4147-19-4 = experiment: competitive ELISA, triasulfurone and analogs with MAb 4147-19-4 (Table 1)
Excerpt: as §1, §2, §3, §4, §5, §6, §7, §8, §9, §10

SMILES	I50 (inhibitor concentration that reduces the ELISA signal by 50% in comparison to the control) (MAb 4134-40-1) [ng/mL]	Cross-reactivity (MAb 4134-40-1) [%]	I50 (inhibitor concentration that reduces the ELISA signal by 50% in comparison to the control) (MAb 4149-1-1) [ng/mL]	Cross-reactivity (MAb 4149-1-1) [%]	I50 (inhibitor concentration that reduces the ELISA signal by 50% in comparison to the control) (MAb 4147-19-4) [ng/mL]	Cross-reactivity (MAb 4147-19-4) [%]
COc1nc(C)nc(NC(=O)NS(=O)(=O)c2ccccc2OCCCl)n1 [triasulfurone, 3-(6-methoxy-4-methyl-1,3,5-triazin-2-yl)-1-[2-(2-chloroethoxy)-phenylsulfonyl]-urea]	7.2	100.0	0.05	100.0	0.09	100.0
COC(=O)c1ccccc1CS(=O)(=O)NC(=O)Nc1nc(OC)cc(OC)n1 [N, bensulfurone-methyl]	> 1000	< 0.7	> 1000	< 0.01	> 1000	< 0.01
CCN(CC)C(=O)NS(=O)(=O)c1ccccc1OCCCl [T]	0.9	800.0	0.01	500.00	17.6	0.5
COC(=O)c1sccc1S(=O)(=O)NC(=O)Nc1nc(C)nc(OC)n1 [L, thiameturone-methyl]	> 1000	< 0.7	> 1000	< 0.01	14.2	0.6
COc1nc(C)nc(NC(=O)NS(=O)(=O)c2ccccc2Cl)n1 [M, chlorosulfurone]	> 1000	< 0.7	420	0.01	14.3	0.6
COc1nc(C)nc(NC(=O)NS(=O)(=O)c2ccccc2SCCF)n1 [H]	30	24.0	16.2	0.3	0.13	69.2
CCS(=O)(=O)c1cccnc1S(=O)(=O)NC(=O)Nc1nc(OC)cc(OC)n1 [Q]	> 1000	< 0.7	> 1000	< 0.01	> 1000	< 0.01
COc1nc(C)nc(NC(=O)NS(=O)(=O)c2cc(O)ccc2OCCCl)n1 [A]	550	1.3	0.16	31.3	21.4	0.4
COC(=O)c1ccccc1S(=O)(=O)NC(=O)Nc1nc(C)cc(C)n1 [J, sulfometurone-methyl]	> 1000	< 0.7	> 1000	< 0.01	> 1000	< 0.01
COc1nc(C)nc(NC(N)=O)n1 [F]	> 1000	< 0.7	> 1000	< 0.01	> 1000	< 0.01
